# Source: patent US20090012165A1, “PHARMACEUTICAL COMBINATION OF NSAID AND PROSTAGLANDIN COMPOUND” (priority 2007, published 2009)
# Tested on: naproxen-induced gastric ulcer
# Assay: naproxen-induced gastric ulcer in rats (ulcer index 5 hours after oral dosing)
# Type: in vivo, Male Crl: CD (SD) rats
# Settings: for Ulcer Index (Mean ± S.E.): rats; for % Inhibition of ulcer index: vs vehicle + naproxen group
# Protocol: Male Crl: […] The animal was euthanized by cervical dislocation 5 hours after administration of the dosing preparation, and the stomach was removed. The stomach was filled with 10 mL of saline and fixed in 1% formalin. Then the stomach was opened along the greater curvature and gently washed with saline. The length of the major axis of each gastric ulcer was measured with digital slide gauges, and the total length of the major axes of all gastric ulcers (ulcer index) was obtained.
structure (smiles),measurement,setting,value
"CC[C@H](C)CC(F)(F)C(=O)CC[C@H]1[C@H](O)CC(=O)[C@@H]1CCCCCCC(=O)O [Compound A, 13,14-dihydro-15-keto-16,16-difluoro-18(S)-methyl-PGE1]",Ulcer Index (Mean ± S.E.),"Compound A 1 μg/kg + naproxen 200 mg/kg oral, 5 hours",63.47 ± 10.87
same,% Inhibition of ulcer index,Compound A 1 μg/kg + naproxen 200 mg/kg,22%
same,Ulcer Index (Mean ± S.E.),"Compound A 10 μg/kg + naproxen 200 mg/kg oral, 5 hours, p<0.05 vs vehicle + naproxen",12.15 ± 3.45
same,% Inhibition of ulcer index,Compound A 10 μg/kg + naproxen 200 mg/kg,85%
same,"reduction of ulcer formation, significance (in words)",Compound A 10 μg/kg and 100 μg/kg + naproxen 200 mg/kg groups compared to vehicle + naproxen group,Significant reductions of ulcer formation
same,Ulcer Index (Mean ± S.E.),"Compound A 100 μg/kg + naproxen 200 mg/kg oral, 5 hours, p<0.01 vs vehicle + naproxen",0.50 ± 0.40
same,% Inhibition of ulcer index,Compound A 100 μg/kg + naproxen 200 mg/kg,99.4%
same,ulcer formation induced by naproxen (in words),"Compound A at 1, 10 and 100 μg/kg with naproxen 200 mg/kg, dose-dependent",reduced
same,protective effect against ulcer formation in combination with NSAID (in words),overall conclusion of Example 1,potent protective effect against ulcer formation
"Cc1c(OCC(F)(F)F)ccnc1C[S+]([O-])c1nc2ccccc2[nH]1 (stereo not shown) [Lansoprazole, lansoprazole, reference compound]",Ulcer Index (Mean ± S.E.),"Lansoprazole 1000 μg/kg + naproxen 200 mg/kg oral, 5 hours",68.09 ± 7.61
same,% Inhibition of ulcer index,Lansoprazole 1000 μg/kg + naproxen 200 mg/kg,16%
same,effect on naproxen-induced gastric ulcers (in words),lansoprazole 1000 μg/kg with naproxen,did not have a significant effect
"COc1ccc2cc([C@H](C)C(=O)O)ccc2c1 [naproxen, reference compound]",Ulcer Index (Mean ± S.E.),"Vehicle (0.01% Tween 80) + naproxen 200 mg/kg oral, 5 hours after administration, n=10",81.48 ± 15.05
